104 compounds from PubChem BioAssay AID1996 can be followed below.

SMILES strings stand for the structures. In brackets after ≈: the same amount, converted by molar mass.

One may read the kinetic solubility as the concentration staying in solution when a stock, usually in DMSO, is diluted into the medium.

For the data set the following is noted: buffer; pH 7.4; 200.0 µM.
In turn, `Cc1ccc(-n2cnc(N)c2C(=O)c2cccc([N+](=O)[O-])c2)cc1` showed a kinetic solubility of 16.6 µg/mL (≈ 51.5 µM).
As to `O=C1NC(=O)N(c2ccccc2)C(=O)/C1=C\c1ccccc1[N+](=O)[O-]`, the solubility (kinetic) was > 50.6 µg/mL.
As for `CC(=O)c1ccccc1NC(=O)CCN1C(=O)C2CCCCC2C1=O` (centres undefined), the figure is > 51.4 µg/mL; as for `O=C(O/N=C(/c1ccccc1)c1ccncc1)c1cccc(F)c1`, 2.1 µg/mL (≈ 6.56 µM); as for `Cc1c(N)cccc1-n1cccc1`, 20 µg/mL (≈ 116 µM).
The same measure for `CCc1cccc2c1NC(=O)C21OCCO1`: 27.5 µg/mL (≈ 125 µM); for `CC(C)(C)c1ccc(C(=O)Nc2ccc(NC(=O)C(=O)O)cc2)o1`: 44.5 µg/mL (≈ 135 µM); for `NC(=O)Cn1cc(C=C2C(=O)NC(=O)NC2=O)c2ccccc21`: 11.3 µg/mL (≈ 36.2 µM).
Compound `COC(=O)c1ccc(CN(C)S(=O)(=O)c2cccs2)cc1` yielded a kinetic solubility of 2.6 µg/mL (≈ 7.99 µM).
Regarding `Fc1ccc(-c2csc(-c3ccc(C4SCCS4)cc3)n2)cc1F`, the solubility (kinetic) is < 0.8 µg/mL.
On to `Cc1ccsc1CNC12CC3CC(CC(C3)C1)C2.Cl`, for which the solubility (kinetic) was determined as 38.1 µg/mL.
Compound `Oc1ccc(C=NC2CCCCC2)cc1` gave a kinetic solubility of 16.6 µg/mL (≈ 81.7 µM).
The same measure for `CSc1ncccc1C(=O)Nc1cccc(S(=O)(=O)N2CCOCC2)c1`: > 59 µg/mL; for `Cc1cccnc1NC(=O)CNC(=O)c1cccs1`: > 41.3 µg/mL; for `CCCCN(C)C(=O)c1ccc2c(c1)S(=O)(=O)c1ccccc1C2=O`: > 53.6 µg/mL.
For the compound `O=C(NC(=S)Nc1cccnc1Cl)c1ccco1`, the kinetic solubility was determined as 32.2 µg/mL (≈ 114 µM).
`COc1cc2[nH]c(C(=O)NCCc3ccccc3)cc2c(OC)c1OC` gave a solubility (kinetic) of 20.3 µg/mL (≈ 57.3 µM).
The same measure for `CN(C)S(=O)(=O)c1ccc(NC(=O)Cn2ccsc2=N)cc1`: 48 µg/mL (≈ 141 µM); for `NC(=S)Nc1c(Cl)cccc1Cl`: > 33.2 µg/mL.
Turning to `O=C(NC1CC2CCCC(C1)N2C(=O)Nc1ccccc1F)C1CC1` (centres undefined), the kinetic solubility came out at 16.2 µg/mL (≈ 46.9 µM).
The same measure for `CC(=O)c1c(O)c2ccccc2n(C(C)C)c1=O`: 29.7 µg/mL (≈ 121 µM).
As for `COc1ccc2c(c1O)C13CCN(C)C(C2)C1CCC(=O)C3` (centres undefined), the figure is > 45.2 µg/mL; as for `O=C(NCc1ccccn1)C(=O)Nc1cccc2ccccc12`, 35.4 µg/mL (≈ 116 µM).
The same measure for `O=C(Nc1nccs1)c1ccc(Cl)c([N+](=O)[O-])c1`: 6.9 µg/mL (≈ 24.3 µM).
Compound `COc1ccc(CC(=O)OCC(=O)Nc2ccc(Cl)cc2C)cc1` displayed a solubility (kinetic) of 9 µg/mL (≈ 25.9 µM).
The same measure for `C1N2CN3CN1CN(C2)C3`: > 21 µg/mL; for `N/C(CCS(=O)(=O)c1ccc(Cl)cc1)=N\OC(=O)c1ccccc1Cl`: 41.6 µg/mL (≈ 104 µM).
As for `Cn1c(=O)[nH]c(=O)c2c1[nH]c(=S)n2Cc1ccc(Cl)cc1`, the figure is 42.3 µg/mL (≈ 131 µM); as for `COc1cccc(OC)c1C(=O)Nc1cccc(S(=O)(=O)Nc2ccccc2Cl)c1`, 47.1 µg/mL (≈ 105 µM).
On to `O=C(NCC(c1ccco1)N1CCN(c2ccccc2F)CC1)c1cccs1` (centres undefined), for which the kinetic solubility stood at 54.3 µg/mL (≈ 136 µM).
The same measure for `CCCn1c(C(O)c2ccc(C)cc2)nc2ccccc21` (centres undefined): 15.9 µg/mL (≈ 56.7 µM); for `COc1ccc(O)c(C(=O)c2cnc3c(c2)CN(C)C(=O)N3)c1`: 8 µg/mL (≈ 25.5 µM); for `CC(=O)N1NC(=Nc2ccccc2)SC1(C)C`: > 37.4 µg/mL.
The same measure for `CSC1=NC2(CCCCC2)CC12C=CC(=O)C=C2`: 36.2 µg/mL (≈ 138 µM); for `O=C(CSc1nnc2ccccn12)NC(=O)c1ccccc1`: > 46.9 µg/mL.
The same measure for `O=c1onc(-c2cccnc2)n1-c1ccccc1F`: 33 µg/mL (≈ 128 µM); for `O=C(O)CCn1c(O)c(C=C2N=c3ccccc3=N2)sc1=S`: > 50 µg/mL; for `CCOc1ccc(NC(=O)c2nsc(Cl)c2Cl)cc1`: 1.3 µg/mL (≈ 4.1 µM).
On to `CN(C)C(CNC(=O)c1c(F)cccc1Cl)c1ccco1` (centres undefined), for which the kinetic solubility is > 46.6 µg/mL.
Regarding `O=C(Cc1ccc(Br)cc1)OCC(=O)N1CCCCCC1`, the solubility (kinetic) was > 53.1 µg/mL.
As for `COc1cccc2c1OC1(CCN(C(C)C)CC1)N1N=C(c3cccnc3)CC21` (centres undefined), the figure is > 58.9 µg/mL; as for `Cn1c(=O)[nH]c(NCCc2ccc(O)cc2)c([N+](=O)[O-])c1=O`, > 45.9 µg/mL.
As to `CCCCOP(=O)(c1ccc(N(C)C)cc1)C(O)c1ccc(N(C)C)cc1` (centres undefined), the kinetic solubility is > 58.6 µg/mL.
As for `CC(C)CC(=O)Nc1ccc2c(c1)nc(CCN1CCOCC1)n2C`, the figure is > 51.7 µg/mL.
`CS(=O)(=O)/C(C#N)=C/c1c(-c2ccccc2)nc2n1CCS2` yielded a solubility (kinetic) of 2.4 µg/mL (≈ 7.24 µM).
As for `Cc1cnc(C(=O)NCC(c2ccccc2)c2ccccc2)cn1`, the figure is 0.8 µg/mL (≈ 2.52 µM).
As for `CC(C)C(OC(=O)c1cccs1)C(=O)NCCc1ccccc1` (centres undefined), the figure is 45.8 µg/mL (≈ 138 µM).
With `CC(=O)N1CCN=C1SCc1cccc(Cl)c1`, the kinetic solubility is > 40.3 µg/mL.
The same measure for `Cc1ccc(C(=O)NC2CCCCNC2=O)cc1` (centres undefined): 33.3 µg/mL (≈ 135 µM); for `COc1ccc(/C=C(\C#N)C(=O)NC(C)c2ccccc2)cc1O` (centres undefined): 18.3 µg/mL (≈ 56.8 µM); for `CN1CCN(C(=O)/C(C#N)=C/c2ccc(F)cc2)CC1.Cl`: > 46.5 µg/mL.
The same measure for `Cl.Clc1cccc2c3c([nH]c12)CCNC3`: 25.8 µg/mL; for `CCOc1ccc(S(=O)(=O)NCCC(=O)N2CCCN(C)CC2)cc1`: 50.4 µg/mL (≈ 136 µM); for `CCc1ccccc1NC(=O)Nc1ccsc1C(=O)OC`: 16.2 µg/mL (≈ 53.2 µM).
The same measure for `O=C(COC(=O)Cc1cccc(F)c1)NC(=O)NC1CCCCC1`: > 50.5 µg/mL; for `CN(C(=O)CSc1nnc2n1CCCCC2)C1(C#N)CCCCC1`: > 52.1 µg/mL; for `COc1ccccc1CNC(=O)c1ccncc1`: > 36.3 µg/mL.
With `Cl.O=C(CN1CCCC1)Nc1cccc(Cl)c1`, the solubility (kinetic) is > 41.3 µg/mL.
As for `N#C/C(=C\c1ccc(F)cc1)C(=O)NC1CCS(=O)(=O)C1` (centres undefined), the figure is 33.8 µg/mL (≈ 110 µM); as for `CC(=O)N=c1sc(S(N)(=O)=O)nn1C`, > 35.4 µg/mL; as for `O=C(O)c1cccc(S(=O)(=O)Nc2cccc3ccccc23)c1`, > 49.1 µg/mL.
As for `Cc1cccc(NC(=O)C2CCN(S(C)(=O)=O)CC2)c1C`, the figure is > 46.6 µg/mL; as for `CC(C)(C)NC(=O)NC(=O)CN1CC=C(c2ccccc2)CC1`, 38.9 µg/mL (≈ 123 µM); as for `O=C(Nc1ccccc1N1CCOCC1)c1ccc([N+](=O)[O-])s1`, 4.6 µg/mL (≈ 13.8 µM).
As for `S=C(NCc1cccnc1)Nc1ccc(Cl)cc1Cl`, the figure is > 46.8 µg/mL.
On to `Cc1cc(=O)n(CC(=O)Nc2cc(Cl)ccc2C)c(C(C)C)n1`, for which the solubility (kinetic) was found to be 40.4 µg/mL (≈ 121 µM).
The same measure for `O=C(COC(=O)c1cccnc1Cl)NC12CC3CC(CC(C3)C1)C2`: 50.1 µg/mL (≈ 144 µM); for `CC(=O)Nc1cccc(C(=O)OCC(=O)NC(=O)c2ccccc2)c1`: 3.5 µg/mL (≈ 10.3 µM); for `O=C1CCCc2nc(N3CCN(C(=O)c4ccco4)CC3)ncc21`: > 49 µg/mL.
As for `Cc1cc(N2C(=O)C(O)=C(C(=O)c3cccs3)C2c2ccc(F)cc2)no1` (centres undefined), the figure is > 57.7 µg/mL; as for `COc1nc(C)cc(C)c1S(=O)(=O)c1ccc(Cl)cc1`, 1.7 µg/mL (≈ 5.45 µM); as for `COc1cc(OC)c(C(=O)OCC(=O)Nc2ccc(N3CCOCC3)cc2)cc1OC`, 6.5 µg/mL (≈ 15.1 µM).
The compound `CCCN(CC(=O)Nc1cc(Cl)ccc1Cl)C(=O)/C=C/c1cc(OC)ccc1OC` registered a kinetic solubility of 5.1 µg/mL (≈ 11.3 µM).
For `Nn1c(C2CCC2)nc2ccccc2c1=O`, the solubility (kinetic) is > 32.3 µg/mL.
The same measure for `O=C(OCC(=O)N1CCOCC1)c1ccccc1OCc1ccccc1Cl`: 54.9 µg/mL (≈ 141 µM); for `CC(C)(CN)CC(=O)O.Cl`: 23.2 µg/mL.
The same measure for `O=C(NCc1ccc(Cl)cc1)c1cc2ccccc2oc1=O`: < 0.7 µg/mL.
The same measure for `O=C(Cn1c(=O)oc2ccccc21)NCCc1ccccc1Cl`: 1.5 µg/mL (≈ 4.53 µM); for `O=C(Nc1ccc2[nH]c(=O)[nH]c2c1)c1ccc(Br)o1`: 8.3 µg/mL (≈ 25.8 µM); for `Cc1ccc(C(C)NC(=O)C2CCCC2)cc1C` (centres undefined): 31.4 µg/mL (≈ 128 µM).
As to `COc1ccccc1OCC(=O)O/N=C(\N)c1ccccn1`, the kinetic solubility was > 45.2 µg/mL.
As for `CC(C)OCCCNc1ncnc2c1nc1n2CCCC1`, the figure is > 43.4 µg/mL; as for `COc1ccc(C(=O)NCC(=O)OCCOc2ccc(Cl)cc2)cc1OC`, 13.6 µg/mL (≈ 34.5 µM).
`CC1CCCCC12NC(=O)N(CC(=O)c1ccc(Cl)s1)C2=O` (centres undefined) had a solubility (kinetic) of 8.5 µg/mL (≈ 24.9 µM).
As for `Brc1cccc(CN2CCN(c3ncccn3)CC2)c1`, the figure is 25.2 µg/mL (≈ 75.6 µM); as for `Cc1cc(C)nc(SCC(=O)Nc2ccc3c(c2)OCO3)n1`, 45.8 µg/mL (≈ 144 µM); as for `CCC(C)NC(=O)C(=O)NCC1CCCN1CC` (centres undefined), 28.8 µg/mL (≈ 113 µM).
The same measure for `CC1CC1C(=O)N(C)CC(=O)Nc1ccccc1Br` (centres undefined): > 48.8 µg/mL; for `COc1ccccc1C(=O)Nc1ccc(Br)cc1C`: < 0.7 µg/mL.
`O=C(NCCc1ccc(F)cc1)c1ccc2nccnc2c1` registered a solubility (kinetic) of 41.6 µg/mL (≈ 141 µM).
As for `C=CCn1c(O)c(C(C)=NC2CCN(Cc3ccccc3)CC2)c(=O)[nH]c1=O`, the figure is 53.6 µg/mL (≈ 140 µM).
As for `Cc1cccc(OCC(=O)Nc2ccc(NC(=O)c3ccco3)cc2)c1`, the figure is 0.6 µg/mL (≈ 1.71 µM).
As for `c1ccc(CCNCC2COc3ccccc3O2)cc1` (centres undefined), the figure is > 40.4 µg/mL; as for `O=c1cc([O-])n(C2CCCCCC2)c(=O)[nH]1.[NH4+]`, 30 µg/mL.
In the case of `O=C(Nc1ccc2c(c1)OCO2)Nc1ccccc1F`, the solubility (kinetic) came to 2.7 µg/mL (≈ 9.84 µM).
The same measure for `Nc1cc(=O)[nH]c(SCC(=O)Nc2cccc(Cl)c2Cl)n1`: 8.4 µg/mL (≈ 24.3 µM); for `Cc1cccc(N(CC(=O)N2CCCCCC2)S(C)(=O)=O)c1`: > 48.7 µg/mL.
For `Cc1ccc(OCc2ccc(C(=O)Nc3cc(C)on3)o2)c([N+](=O)[O-])c1`, the kinetic solubility was determined as 1.4 µg/mL (≈ 3.92 µM).
As for `COc1cccc(NC(=O)c2ccccc2Oc2ccccc2)c1`, the figure is 6.4 µg/mL (≈ 20 µM).
`O=C(NC1CCC(O)CC1)c1ccc(-c2ccc(Cl)cc2)o1` (centres undefined) registered a solubility (kinetic) of 18.7 µg/mL (≈ 58.5 µM).
As for `NS(=O)(=O)c1ccc(CNC(=O)Cc2ccccc2F)cc1`, the figure is > 48.4 µg/mL; as for `CC1CCCCN1C(=S)NC(=O)c1cccs1` (centres undefined), > 40.3 µg/mL.
Compound `Cc1ccc(NC(=S)NC(=O)Cc2ccccc2)c(O)c1` registered a solubility (kinetic) of 3.3 µg/mL (≈ 11 µM).
The same measure for `CC(C)NCC(O)c1ccc(O)c(O)c1.Cl` (centres undefined): > 37.2 µg/mL.
